Laboratory results: US11673897B2, “Compounds for the treatment of kinase-dependent disorders” (Exelixis, Inc., priority 2018, dated 2023)

Columns and labels:
Mer [1] = molecular target: T1, Mer (Homo sapiens (Human), UniProt Q12866); experiment: Human Mer kinase assay (33P radiometric, KinaseProfiler); type: biochemical; details: 10 μM ATP
Experimental: Kinase activity and compound inhibition were investigated using the ^33P-Phosphoryl transfer radiometric kinase assay, performed using the KinaseProfiler™ service of Eurofins Pharma Discovery Services UK Limited. Dose-response experiments were performed using nine compound concentrations in a 96-well microtiter plate. For each assay, all compounds were prepared to a 50× final assay concentration (50 μM) in 100% DMSO, then diluted in a half-log series, with the final top concentration at 1 μM. This working stock of the compound was added to the assay well as the first component in the reaction, followed by the remaining components as detailed in the following assay protocols below. The positive control wells (100% kinase activity) contain all components of the reaction including 2% DMSO (control for solvent effects), except the compound of interest. Blank wells contain all components of the reaction, with the reference inhibitor, staurosporine. This reference compound was used to abolish kinase activity and generated the 0% kinase activity base-line. IC50 values were calculated by nonlinear regression analysis using the sigmoidal dose-response (variable slope) curve fit on XLFit version 5.3 (ID Business Solutions).
Human Mer (residues R557-E882 with H628Q and R794A, 0.7 nM) was incubated with 8 mM MOPS pH 7.0, 0.2 mM EDTA, 30 mM NaCl, 250 μM GGMEDIYFEFMGGKKK (SEQ ID NO. 44), 10 mM magnesium acetate, and 10 μM [γ-^33P-ATP]. The reaction was initiated by the addition of the Mg/ATP mix. After incubation for 40 minutes at room temperature, the reaction was stopped by the addition of phosphoric acid to a concentration of 0.5%. A reaction aliquot of 10 μL was then spotted onto a P30 filtermat and washed four times for 4 minutes in 0.425% phosphoric acid and once in methanol prior to drying and scintillation counting. Incorporated ^33P was measured using the Wallac Microbeta scintillation counter (Perkin Elmer).
Target sequence in this assay (Q12866 557-882): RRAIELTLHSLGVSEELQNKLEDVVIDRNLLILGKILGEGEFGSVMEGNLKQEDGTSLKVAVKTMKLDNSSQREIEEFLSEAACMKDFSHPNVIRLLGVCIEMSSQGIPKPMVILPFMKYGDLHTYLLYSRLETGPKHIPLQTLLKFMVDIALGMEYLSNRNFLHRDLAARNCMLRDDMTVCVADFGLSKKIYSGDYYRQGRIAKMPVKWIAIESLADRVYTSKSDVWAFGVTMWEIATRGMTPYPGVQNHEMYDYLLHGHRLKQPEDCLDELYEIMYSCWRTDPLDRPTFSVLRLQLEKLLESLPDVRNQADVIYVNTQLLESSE

AXL = AXL (Homo sapiens (Human), UniProt P30530); experiment: AXL autophosphorylation ELISA in A-172 cells; type: cell-based; details: cellular, Gas6-stimulated, phospho-AXL ELISA
Sequence of AXL (P30530 26-894): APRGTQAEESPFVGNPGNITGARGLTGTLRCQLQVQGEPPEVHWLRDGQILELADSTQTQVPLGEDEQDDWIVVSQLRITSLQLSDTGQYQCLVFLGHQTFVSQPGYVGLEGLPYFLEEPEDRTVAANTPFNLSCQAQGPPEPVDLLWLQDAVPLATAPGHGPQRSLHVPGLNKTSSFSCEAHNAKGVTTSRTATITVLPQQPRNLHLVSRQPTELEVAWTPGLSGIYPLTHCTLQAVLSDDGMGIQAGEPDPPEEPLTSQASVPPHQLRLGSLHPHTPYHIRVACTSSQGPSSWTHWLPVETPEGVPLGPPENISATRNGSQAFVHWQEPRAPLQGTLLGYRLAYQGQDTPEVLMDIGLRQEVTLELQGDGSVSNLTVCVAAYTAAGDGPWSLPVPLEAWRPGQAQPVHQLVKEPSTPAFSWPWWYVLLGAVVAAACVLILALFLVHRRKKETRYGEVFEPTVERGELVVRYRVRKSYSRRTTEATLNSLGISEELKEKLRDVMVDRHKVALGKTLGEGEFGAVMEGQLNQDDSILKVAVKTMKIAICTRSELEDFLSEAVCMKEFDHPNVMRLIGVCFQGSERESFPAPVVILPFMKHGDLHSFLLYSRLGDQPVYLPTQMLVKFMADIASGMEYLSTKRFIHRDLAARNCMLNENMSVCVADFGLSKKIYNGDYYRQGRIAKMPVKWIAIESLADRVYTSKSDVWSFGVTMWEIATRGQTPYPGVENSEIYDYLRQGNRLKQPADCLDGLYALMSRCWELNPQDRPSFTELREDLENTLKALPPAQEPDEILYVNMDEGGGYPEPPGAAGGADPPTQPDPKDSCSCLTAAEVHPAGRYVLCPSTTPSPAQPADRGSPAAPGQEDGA
How it was run: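 A-172 glioblastoma cells, serum-starved 24 h, took compounds for 1 h (8-point curve, 0.3% DMSO) before 15 min stimulation with 1 μg/mL recombinant human Gas6. Lysate phospho-AXL measured by ELISA against a phospho-AXL standard, normalized to DMSO (100%) and reference inhibitor (0%); IC50 from 4-parameter logistic fit.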

Mer [2] = molecular target: T1, Mer; experiment: Mer autophosphorylation ELISA in transient transfected 293A cells; type: cell-based; details: cellular, MERTK-transfected 293A cells, phospho-Mer ELISA
How it was run: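 293A cells transiently transfected with human MERTK DNA, then treated 1 h with 8-point compound dilutions in serum-free medium (0.3% DMSO). Phospho-Mer in lysates quantified by sandwich ELISA against phospho-Mer standard; normalised to DMSO (100%) and reference inhibitor (0%), IC50 from 4-parameter logistic fit.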
Target sequence in this assay (Q12866 21-999): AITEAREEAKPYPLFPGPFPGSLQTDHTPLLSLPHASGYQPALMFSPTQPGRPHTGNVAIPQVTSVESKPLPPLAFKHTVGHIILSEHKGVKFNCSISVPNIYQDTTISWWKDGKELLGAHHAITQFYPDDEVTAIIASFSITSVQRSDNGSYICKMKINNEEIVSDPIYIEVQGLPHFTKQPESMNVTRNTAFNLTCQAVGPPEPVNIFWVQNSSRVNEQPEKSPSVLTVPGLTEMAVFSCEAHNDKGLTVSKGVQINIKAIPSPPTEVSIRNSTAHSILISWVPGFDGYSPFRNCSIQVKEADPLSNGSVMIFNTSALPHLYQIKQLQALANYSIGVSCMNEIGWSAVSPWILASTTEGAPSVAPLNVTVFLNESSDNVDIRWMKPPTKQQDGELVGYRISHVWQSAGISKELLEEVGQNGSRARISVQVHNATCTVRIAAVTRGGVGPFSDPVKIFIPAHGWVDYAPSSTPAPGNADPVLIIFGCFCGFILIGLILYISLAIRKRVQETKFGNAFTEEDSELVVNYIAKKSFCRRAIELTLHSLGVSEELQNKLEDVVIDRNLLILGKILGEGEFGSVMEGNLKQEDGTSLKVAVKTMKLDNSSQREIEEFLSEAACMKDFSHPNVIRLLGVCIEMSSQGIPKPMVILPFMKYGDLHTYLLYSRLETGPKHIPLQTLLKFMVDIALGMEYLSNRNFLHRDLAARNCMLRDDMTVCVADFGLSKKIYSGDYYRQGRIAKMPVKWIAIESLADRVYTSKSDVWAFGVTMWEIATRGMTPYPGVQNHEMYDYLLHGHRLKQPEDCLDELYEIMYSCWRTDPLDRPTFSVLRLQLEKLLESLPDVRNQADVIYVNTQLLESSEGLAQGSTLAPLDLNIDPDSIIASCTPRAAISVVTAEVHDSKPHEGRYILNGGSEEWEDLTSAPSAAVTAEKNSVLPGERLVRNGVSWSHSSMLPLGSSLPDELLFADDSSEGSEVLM

`COC(=O)c1cc2c(Oc3ccc(NC(=O)C4(C(=O)Nc5ccc(F)cc5)CC4)cn3)ccnc2cc1OC` [Compound 10, Methyl 4-[5-[[1-[(4-fluorophenyl)carbamoyl]cyclopropanecarbonyl]-amino]pyridin-2-yl]oxy-7-methoxyquinoline-6-carboxylate] gave an IC50 (Mer [1]) of no more than 10 nM and an IC50 (AXL) of 10 to 100 nM.
`COC(=O)c1cc2c(Oc3ncc(NC(=O)C4(C(=O)Nc5ccc(F)cc5)CC4)cc3Cl)ccnc2cc1OC` [Compound 11, Methyl 4-[3-chloro-5-[[1-[(4-fluorophenyl)carbamoyl]cyclopropanecarbonyl]-amino]pyridin-2-yl]oxy-7-methoxyquinoline-6-carboxylate] was tested, and the IC50 (Mer [1]) was no more than 10 nM, the IC50 (AXL) was 10 to 100 nM and the IC50 (Mer [2]) was 10 to 100 nM.
Compound `COc1cc2nccc(Oc3ccc(NC(=O)C4(C(=O)Nc5ccc(F)cc5)CC4)cn3)c2cc1C(N)=O` [Compound 16, 1-N′-[6-(6-Carbamoyl-7-methoxyquinolin-4-yl)oxypyridin-3-yl]-1-N-(4-fluorophenyl)-cyclopropane-1,1-dicarboxamide] has an IC50 (Mer [1]) of no more than 10 nM and an IC50 (AXL) of 10 to 100 nM.
`CNC(=O)c1cc2c(Oc3ccc(NC(=O)C4(C(=O)Nc5ccc(F)cc5)CC4)cn3)ccnc2cc1OC` [Compound 17, 1-N-(4-Fluorophenyl)-1-N′-[6-[7-methoxy-6-(methylcarbamoyl)quinolin-4-yl]oxypyridin-3-yl]cyclopropane-1,1-dicarboxamide] showed an IC50 (Mer [1]) of 10 to 100 nM and an IC50 (AXL) of 10 to 100 nM.
Work on `COc1cc2nccc(Oc3ncc(NC(=O)C4(C(=O)Nc5ccc(F)cc5)CC4)cc3Cl)c2cc1C(N)=O` [Compound 18, 1-N′-[6-(6-Carbamoyl-7-methoxyquinolin-4-yl)oxy-5-chloropyridin-3-yl]-1-N-(4-fluorophenyl)cyclopropane-1,1-dicarboxamide] yielded an IC50 (Mer [1]) of no more than 10 nM, an IC50 (AXL) of no more than 10 nM and an IC50 (Mer [2]) of 10 to 100 nM.
Compound `COc1cc2nccc(Oc3ccc(NC(=O)C4(C(=O)Nc5ccc(F)cc5)CC4)cn3)c2cc1-c1cn[nH]c1` [Compound 60, 1-N-(4-Fluorophenyl)-1-N′-[6-[7-methoxy-6-(1H-pyrazol-4-yl)quinolin-4-yl]oxypyridin-3-yl]cyclopropane-1,1-dicarboxamide] has an IC50 (Mer [1]) of no more than 10 nM, an IC50 (AXL) of 10 to 100 nM and an IC50 (Mer [2]) of 10 to 100 nM.
Compound `COc1cc2nccc(Oc3ncc(NC(=O)C4(C(=O)Nc5ccc(F)cc5)CC4)cc3Cl)c2nc1OC` [Compound 80, 1-N′-[5-Chloro-6-[(6,7-dimethoxy-1,5-naphthyridin-4-yl)oxy]pyridin-3-yl]-1-N-(4-fluorophenyl)cyclopropane-1,1-dicarboxamide] has an IC50 (Mer [1]) of 10 to 100 nM, an IC50 (AXL) of 100 to 300 nM and an IC50 (Mer [2]) of 100 to 300 nM.
For `COc1cc2nccc(Oc3ccc(NC(=O)C4(C(=O)Nc5ccc(F)cc5)CC4)cn3)c2nc1OC` [Compound 81, 1-N′-[6-[(6,7-Dimethoxy-1,5-naphthyridin-4-yl)oxy]pyridin-3-yl]-1-N-(4-fluorophenyl)cyclopropane-1,1-dicarboxamide], the IC50 (Mer [1]) was 10 to 100 nM and the IC50 (AXL) was 100 to 300 nM.
Work on `COc1cc2nccc(Oc3ncc(NC(=O)C4(C(=O)Nc5ccc(F)cc5)CC4)cc3F)c2nc1OC` [Compound 82, 1-N′-[6-[(6,7-Dimethoxy-1,5-naphthyridin-4-yl)oxy]-5-fluoropyridin-3-yl]-1-N-(4-fluorophenyl)cyclopropane-1,1-dicarboxamide] yielded an IC50 (Mer [1]) of no more than 10 nM, an IC50 (AXL) of 10 to 100 nM and an IC50 (Mer [2]) of 10 to 100 nM.
